The source of these data is publication PMC11414412, “Design and synthesis new indole-based aromatase/iNOS inhibitors with apoptotic antiproliferative activity” (Frontiers in Chemistry, 2024).

One data set has as its target T1, iNOS (Homo sapiens, UniProt P35228).
T1 construct: purchased Enzo Life Sciences, Inc. (New York, USA)
The data set is described as follows: NOS inhibition assay (L-citrulline, fluorometric detection), iNOS. The format is biochemical. The note with it: for inhibition at 1 µM: compound at 1 µM; for eNOS/iNOS selectivity: ratio of eNOS IC50 to iNOS IC50. The protocol: The investigated compounds were tested at 1 µM against the iNOS and 10 µM against the eNOS to determine their isoform selectivity. Because of its critical role in cardiovasculature, inhibiting the constitutive enzyme eNOS should be avoided.
Refer to Supplementary Appendix SA1 for more details.
4.2.4. NOS inhibition assay
Recombinant human iNOS was purchased from Enzo Life Sciences, Inc. (New York, USA).
Recombinant bovine eNOS was purchased from Cayman Chemical (Ann Arbor, USA). To measure iNOS activity, 10 μL of enzyme stock solution were added to 80 μL of 2-[4-(2-hydroxyethyl) piperazin-1-yl]ethanesulfonic acid (HEPES) buffer pH = 7.4, 100 mM, containing 0.1 mM CaCl2, 1 mM D,L-dithiothreitol (DTT), 0.5 mg/mL BSA, 10 μM flavin mononucleotide (FMN), 10 μM flavin adenine dinucleotide (FAD), 30 μM tetrahydrobiopterin (BH4), 10 μg/mL calmodulin (CaM), 10 μM L-Arg. For the eNOS activity evaluation, 25 μL of the enzyme stock solution were added to 65 μL of HEPES buffer containing 2 mM CaCl2 and the same cofactors […]
μM) were added to the enzyme assay solution, followed by pre -incubation of 15 min at 37 ◦C.
Each reaction was initiated by the addition of 10 μL of NADPH 7.5 mM, carried out at 37 ◦C for 30 min, and stopped by adding 500 μL of ice -cold CH3CN. The mixture was brought to dryness under vacuum and eventually stored at – 20 ◦C, before the HPLC analysis. […]

A further data set deals with Panc-1 cells. The data set is described as follows: Antiproliferative assay, Panc-1. The format is cell-based. The note with it: Homo sapiens; Panc-1 pancreatic cancer cell line; read-out: Antiproliferative activity IC50 ± SEM, Panc-1. The protocol: 4.2.2. Assay for antiproliferative effect
To explore the antiproliferative potential of compounds propidium iodide fluorescence assay was performed using different cell lines such as Panc-1 (pancreas cancer cell line), MCF-7 (breast cancer cell line), HT-29 (colon cancer cell line) and A-549 (epithelial cancer cell line), respectively. To calculate the total nuclear DNA, a fluorescent dye (propidium iodide, PI) is used which can attach to the DNA, thus offering a quick and precise technique. PI cannot pass through the cell membrane and its signal intensity can be considered as directly proportional to quantity of cellular DNA. Cells whose cell membranes are damaged or have changed permeability are counted as dead ones. The assay was performed by seeding the cells of different cell lines at a density of 3000-7500 cells/well (in200μl medium) in culture plates followed by incubation for 24h at 37 °C in humidified 5%CO2/95% air atmospheric conditions. The medium was removed; the compounds were added to the plates at 10 μM concentrations (in 0.1% DMSO) in triplicates, followed by incubation for 48h. DMSO (0.1%) was used as control. After incubation, medium was removed followed by the addition of PI (25 μl, 50μg/mL in water/medium) to each well of the plates. At - 80 °C, the plates were allowed to freeze for 24 h, followed by thawing at 25 °C. A fluorometer (Polar-Star BMG Tech) was used to record the readings at excitation and emission wavelengths of 530 and 620 nm for each well. The percentage cytotoxicity of compounds was calculated using […]
Where ATC= Absorbance of treated cells and AC= Absorbance of control. Erlotinib was used as positive control in the assay.

The nature of data set [1]: Cell viability assay (MTT) on normal mammary epithelial cells. The format is cell-based, human. The note with it: human, MCF-10A normal mammary gland epithelial cells, MCF-10A normal cells, 4 days incubation. As to the method: This test investigates the effects of the new compounds 3–16 on normal cell lines to determine their safety. The normal human mammary gland epithelial (MCF-10 A) cell line was used to test the viability of the tested compounds. After 4 days of incubation on MCF-10 A cells within 50 µM of each investigated compound, cell viability was determined using the MTT assay ([Gomaa et al., 2020]; [Marzouk et al., 2020]).
The normal human mammary gland epithelial (MCF-10A) cell line was used to test the viability of the tested compounds. After 4 days of incubation on MCF-10A cells within 50 µM of each investigated compound, cell viability was determined using the MTT assay ([Gomaa et al., 2020]; [Marzouk et al., 2020]). Refer to Supplementary Appendix SA1 (supp. File) for more details.
4.2. Biological evaluation
4.2.1 Cell Viability assay (MTT assay)
MTT assay was performed to investigate the effect of the synthesized compounds on mammary epithelial cells (MCF-10A). The cells were propagated in medium consisting of Ham's F-12 medium/ Dulbecco's modified Eagle's medium (DMEM) (1:1) supplemented with 10% foetal calf serum, 2 mM glutamine, insulin (10 μg/mL), hydrocortisone (500 ng/mL) and epidermal growth factor (20 ng/mL). Trypsin ethylenediamine tetra acetic acid (EDTA) was used to passage the cells after every 2-3 days. 96-well flat-bottomed cell culture plates were used to seed the cells at a density of 10^4 cells mL-1. The medium was aspirated from all the wells of culture plates after 24 h followed by the addition of synthesized compounds (in 200 μL medium to yield a final concentration of 0.1% (v/v) dimethyl sulfoxide) into individual wells of the plates. Four wells were designated to a single compound. The plates were allowed to incubate at 37°C for 96 h. Afterwards, the medium was aspirated and 3-[4,5-dimethylthiazol-2-yl]-2,5-diphenyltetrazolium bromide (MTT) (0.4 mg/mL) in medium was added to each well and subsequently incubated for 3 h. The medium was aspirated and 150 μL dimethyl sulfoxide (DMSO) was added to each well. The plates were vortexed followed by the measurement of absorbance at 540 nm on a microplate reader. The results were presented as inhibition (%) of proliferation in contrast to controls comprising 0.1%

The target of the next data set is T2, aromatase (CYP19) (Homo sapiens, UniProt P11511).
T2 sequence (P11511 1-503): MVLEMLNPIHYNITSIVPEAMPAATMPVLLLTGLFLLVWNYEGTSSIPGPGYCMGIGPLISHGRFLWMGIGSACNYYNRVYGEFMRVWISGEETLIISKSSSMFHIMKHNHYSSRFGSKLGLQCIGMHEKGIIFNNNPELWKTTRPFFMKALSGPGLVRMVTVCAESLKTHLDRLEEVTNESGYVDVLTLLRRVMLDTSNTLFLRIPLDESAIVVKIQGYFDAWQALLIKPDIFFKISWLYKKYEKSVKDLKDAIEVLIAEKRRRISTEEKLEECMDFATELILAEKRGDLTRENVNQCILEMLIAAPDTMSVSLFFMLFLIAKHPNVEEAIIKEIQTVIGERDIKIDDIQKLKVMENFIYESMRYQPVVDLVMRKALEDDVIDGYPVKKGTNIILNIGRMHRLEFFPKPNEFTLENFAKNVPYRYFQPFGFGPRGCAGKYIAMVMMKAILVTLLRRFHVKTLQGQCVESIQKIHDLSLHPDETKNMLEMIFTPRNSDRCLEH
Nature of the data set: Aromatase inhibitory assay (Gentest kit, DBF fluorometric substrate).

Method for aromatase (CYP19): The aromatase inhibitory effect was performed using the method reported by Stressor et al.[35].
This method was carried out according to the Gentest kit using CYP19 enzyme and DBF as a
fluorometric substrate. DBF was dealkylated by aromatase and then hydrolyzed to give the
fluorescein product. Briefly, 100 μL of cofactor, containing 78.4 μL of 50 mM phosphate buffer
(pH 7.4); 20 μL of 20x NADPH-generating system (26 mM NADP+, 66 mM glucose-6-phosphate,
and 66 mM MgCl2); and 1.6 μL of 100 U/mL glucose-6-phosphate dehydrogenase, was pipetted
into a 96-well plate and preincubated in 37 °C (water bath) for 10 min. The reaction was initiated
by addition of 100 μL of enzyme/substrate mixture containing 77.3 μL of 50 mM
phosphate buffer (pH 7.4); 12.5 μL of 16 pmol/mL CYP19; 0.2 μL of 0.2 mM DBF, and 10 μL of
0.25 mM diluted tested sample or 10% DMSO as a negative control or letrozole as a positive
control. Fluorescence signal was recorded using an excitation wavelength of 490 nm and emission
Percentage of inhibition (%inhibition) was calculated
as shown in Equation (1).
assayed in triplicate. Finally, IC50 values were determined by plot of concentrations versus %

As for `CCc1c2cc(Cl)ccc2n2c(C)c(C(=O)OCc3ccccc3)[nH]c(=O)c12` [Compound 5, benzyl 8-chloro-10-ethyl-4-methyl-1-oxo-1,2-dihydropyrazino [1,2-a]indole-3-carboxylate], the inhibition (usually how much of the control response was suppressed) at 1 µM against iNOS was determined as 62 ± 2%. The figures for the IC50 in the data set on Panc-1 cells and on aromatase (CYP19) were 32 ± 3 nM and 20 ± 2 nM, respectively. In addition, the viability (commonly a per cent measure of how many cells are alive, often set against a control) at 4 days, 50 µM in data set [1] was 90%.
`CCc1c2cc(Cl)ccc2n2c(C)c(C(=O)NCc3ccccc3)[nH]c(=O)c12` [Compound 7, N-benzyl-8-chloro-10-ethyl-4-methyl-1-oxo-1,2-dihydropyrazino [1,2-a]indole-3-carboxamide] returned an inhibition at 1 µM against iNOS of 73 ± 2%. Moreover, the concentration for half-maximal inhibition (IC50) (in general, the midpoint of a concentration-inhibition curve) in the data set on Panc-1 cells came to 28 ± 2 nM; at aromatase (CYP19), 15 ± 1 nM. The same compound came in with a viability at 4 days, 50 µM in data set [1] of 88%.
On to `CCc1c2cc(Cl)ccc2n2cc(-c3ccccc3)[nH]c(=O)c12` [Compound 16, 8-Chloro-10-ethyl-3-phenylpyrazino [1,2-a]indol-1(2H)-one], for which the IC50 was 98 ± 3 nM at iNOS, 25 ± 2 nM in the data set on Panc-1 cells and 12 ± 1 nM against aromatase (CYP19). The same compound showed an inhibition at 1 µM on iNOS of 81 ± 3%. Also, the eNOS/iNOS selectivity at iNOS is listed as more than 510. In data set [1], this compound had a viability at 4 days, 50 µM of 91%.
Regarding `CCc1c2cc(Cl)ccc2n2cc(Cc3ccccc3)n(C)c(=O)c12` [Compound 12, 3-Benzyl-8-chloro-10-ethyl-2-methylpyrazino[1,2-a]indol-1(2H)-one], on iNOS, half-maximal inhibition (IC50) was put at 75 ± 2 nM, 1 µM produced 87 ± 3% inhibition and the eNOS/iNOS selectivity is given as more than 670. Also, the IC50 with Panc-1 cells was found to be 24 ± 2 nM. In data set [1], this compound showed a viability at 4 days, 50 µM of 89%. Moreover, at aromatase (CYP19), the “Fold less potent than Letrozole (aromatase IC50)” value was 5 fold, the “Fold more potent than Ketoconazole (aromatase IC50)” value was “at least 10 fold” and the IC50 worked out at 10 ± 1 nM.
